Measurements reported in patent US20090099167A1, “Organic compounds” (Novartis Institutes for Biomedical Research, priority 2004, published 2009).

Tests used:
[1] = target: T1, human VEGF-R2 receptor (KDR) (Homo sapiens, UniProt P35968); assay: VEGF-induced KDR autophosphorylation in transfected CHO cells, sandwich ELISA; type: cell-based; conditions: Table 5; read-out: KDR, IC50 class
T1 construct: expressed in transfected cells; host or cells: CHO cells
Procedure: (§1) The compounds to be tested are then diluted in culture medium (without FCS, with 0.1% bovine serum albumin) and added to the cells. (Controls comprise medium without test compounds). After two hours' incubation at 37° C., recombinant VEGF is added; the final VEGF concentration is 20 ng/ml). After a further five minutes incubation at 37° C., the cells are washed twice with ice-cold PBS (phosphate-buffered saline) and immediately lysed in 100 μl lysis buffer per well. The lysates are then centrifuged to remove the cell nuclei, and the protein concentrations of the supernatants are determined using a commercial protein assay (BIORAD). The lysates can then either be immediately used or, if necessary, stored at −20° C. A sandwich ELISA is carried out to measure the VEGF-R2 phosphorylation: a monoclonal antibody to VEGF-R2 (for example Mab 1495.12.14; ProQinase, Freiburg, Germany) is immobilized on black ELISA plates (OptiPlate™ HTRF-96 from Packard). The plates are then washed and the remaining free protein-binding sites are saturated with 3% TopBlock® (Juro, Cat. # TB232010) in phosphate buffered saline with Tween 20® (polyoxyethylen(20)-sorbitane monolaurate, ICI/Uniquema) (PBST). The cell lysates (20 μg protein per well) are then incubated in these plates overnight at 4° C. together with an antiphosphotyrosine antibody coupled with alkaline phosphatase (PY20:AP from Zymed). […] The luminescence is measured in a Packard Top Count Microplate Scintillation Counter. The difference between the signal of the positive control (stimulated with VEGF) and that of the negative control (not stimulated with VEGF) corresponds to VEGF-induced VEGF-R2 phosphorylation (=100%). The activity of the tested substances is calculated as percent inhibition of VEGF-induced VEGF-R2 phosphorylation, wherein the concentration of substance that induces half the maximum inhibition is defined as the IC50 (inhibitory dose for 50% inhibition). […] Flt3 kinase inhibition is determined as follows: The baculovirus donor vector pFbacG01 (GIBCO) is used to generate a recombinant baculovirus expressing the amino acid region amino acids 563-993 of the cytoplasmic kinase domain of human Flt-3. The coding sequence for the cytoplasmic domain of Flt-3 is amplified by PCR from human c-DNA libraries (Clontech). The amplified DNA fragments and the pFbacG01 vector are made compatible for ligation by digestion with BamH1 and HindIII. Ligation of these DNA fragments results in the baculovirus donor plasmid Flt-3(1.1). The production of the viruses, the expression of proteins in Sf9 cells and the purification of the GST-fused proteins are performed as follows: Production of virus: Transfer vector (pFbacG01-Flt-3) containing the Flt-3 kinase domain is transfected into the DH10Bac cell line (GIBCO) and the transfected cells are plated on selective agar plates. Colonies without insertion of the fusion sequence into the viral genome (carried by the bacteria) are blue. Single white colonies are picked and viral DNA (bacmid) is isolated from the bacteria by standard plasmid purification procedures. Sf9 or Sf21 cells (American Type Culture Collection) are then transfected in flasks with the viral DNA using Cellfectin reagent. Determination of small scale protein expression in Sf9 cells: Virus containing media is collected from the transfected cell culture and used for infection to increase its titre. Virus containing media obtained after two rounds of infection is used for large-scale protein expression. For large-scale protein expression 100 cm^2 round tissue culture plates are seeded with 5×10^7 cells/plate and infected with 1 mL of virus-containing media (approx. 5 MOIs). After 3 days the cells are scraped off the plate and centrifuged at 500 rpm for 5 min. Cell pellets from 10-20, 100 cm^2 plates, are resuspended in 50 mL of ice-cold lysis buffer (25 mMTris-HCl, pH 7.5, 2 mM EDTA, 1% NP-40, 1 mM DTT, 1 mM PMSF). The cells are stirred on ice for 15 min and then centrifuged at 5000 rpms for 20 min. […]

human Flt-3 = target: T2, human Flt-3 (Homo sapiens, UniProt P36888); assay: Flt3 kinase inhibition, GST-Flt-3, 33P incorporation into poly(Glu,Tyr); type: biochemical; conditions: Table 5; read-out: Flt-3, IC50 class
T2 construct: expressing the amino acid region amino acids 563-993 of the cytoplasmic kinase domain of human Flt-3; made in house; host or cells: Sf9 (baculovirus)
T2 sequence (P36888 563-993): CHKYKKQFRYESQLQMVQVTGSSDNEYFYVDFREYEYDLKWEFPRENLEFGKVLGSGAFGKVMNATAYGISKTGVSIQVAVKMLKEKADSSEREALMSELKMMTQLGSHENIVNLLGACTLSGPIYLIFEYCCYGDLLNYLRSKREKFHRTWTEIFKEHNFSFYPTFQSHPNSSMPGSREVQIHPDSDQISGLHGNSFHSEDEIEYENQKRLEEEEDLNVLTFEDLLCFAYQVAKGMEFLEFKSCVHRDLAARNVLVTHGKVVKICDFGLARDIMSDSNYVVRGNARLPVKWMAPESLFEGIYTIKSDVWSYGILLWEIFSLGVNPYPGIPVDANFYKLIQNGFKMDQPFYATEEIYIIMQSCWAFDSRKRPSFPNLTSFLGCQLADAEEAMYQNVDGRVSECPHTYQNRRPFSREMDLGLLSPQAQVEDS
Procedure: as §1

T1 sequence (P35968 20-1356): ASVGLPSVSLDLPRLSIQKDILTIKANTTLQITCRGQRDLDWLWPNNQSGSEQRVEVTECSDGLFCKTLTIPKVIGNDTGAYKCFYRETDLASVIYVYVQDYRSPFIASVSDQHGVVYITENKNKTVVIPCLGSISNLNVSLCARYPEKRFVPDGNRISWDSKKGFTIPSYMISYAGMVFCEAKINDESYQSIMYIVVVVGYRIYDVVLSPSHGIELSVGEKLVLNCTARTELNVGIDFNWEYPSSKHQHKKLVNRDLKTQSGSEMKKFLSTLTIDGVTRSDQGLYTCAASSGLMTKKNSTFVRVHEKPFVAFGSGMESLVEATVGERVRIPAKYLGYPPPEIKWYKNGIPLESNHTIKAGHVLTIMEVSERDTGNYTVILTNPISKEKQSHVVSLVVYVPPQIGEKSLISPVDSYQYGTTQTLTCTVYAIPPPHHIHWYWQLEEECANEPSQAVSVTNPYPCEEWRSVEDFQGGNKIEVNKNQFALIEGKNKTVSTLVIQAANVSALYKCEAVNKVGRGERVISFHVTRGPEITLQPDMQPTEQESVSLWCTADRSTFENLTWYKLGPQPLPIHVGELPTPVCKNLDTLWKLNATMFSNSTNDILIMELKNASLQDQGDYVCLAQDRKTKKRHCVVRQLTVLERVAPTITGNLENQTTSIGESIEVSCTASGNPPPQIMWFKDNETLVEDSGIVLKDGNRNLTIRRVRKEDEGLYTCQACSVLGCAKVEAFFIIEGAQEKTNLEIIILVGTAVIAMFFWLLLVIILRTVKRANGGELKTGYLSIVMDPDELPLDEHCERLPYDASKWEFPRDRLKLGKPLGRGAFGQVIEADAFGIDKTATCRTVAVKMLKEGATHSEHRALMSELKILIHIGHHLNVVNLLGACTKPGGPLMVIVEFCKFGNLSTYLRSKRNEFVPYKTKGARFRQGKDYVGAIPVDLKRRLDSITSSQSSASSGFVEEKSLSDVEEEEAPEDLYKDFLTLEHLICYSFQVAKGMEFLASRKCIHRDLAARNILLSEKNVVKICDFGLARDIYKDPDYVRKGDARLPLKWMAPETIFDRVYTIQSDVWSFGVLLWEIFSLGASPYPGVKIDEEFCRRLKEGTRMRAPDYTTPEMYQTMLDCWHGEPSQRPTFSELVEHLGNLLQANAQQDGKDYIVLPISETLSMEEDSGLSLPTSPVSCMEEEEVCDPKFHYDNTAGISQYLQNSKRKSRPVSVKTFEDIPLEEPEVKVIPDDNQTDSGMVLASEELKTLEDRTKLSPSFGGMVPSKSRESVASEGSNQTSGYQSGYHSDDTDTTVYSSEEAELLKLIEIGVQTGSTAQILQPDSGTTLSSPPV

| SMILES | IC50 [1] [µM] | IC50 (human Flt-3) [µM] |
| --- | --- | --- |
| COc1ccc(-c2cnn3c(N)c(-c4ccc(F)c(F)c4)c(C)nc23)cc1OC [Example 99, 6-(3,4-Difluoro-phenyl)-3-(3,4-dimethoxy-phenyl)-5-methyl-pyrazolo[1,5-a]pyrimidin-7-ylamine] | > 10 | > 10 |
| Cc1nc2c(-c3ccc(N4CCN(C)CC4)cc3)cnn2c(N)c1-c1ccc(F)c(Cl)c1 [Example 83, 6-(3-Chloro-4-fluoro-phenyl)-5-methyl-3-[4-(4-methyl-piperazin-1-yl)-phenyl]-pyrazolo[1,5-a]pyrimidin-7-ylamine] | > 10 | > 10 |
| Cc1nc2c(-c3cccc(N4CCC(N5CCCC5)CC4)c3)cnn2c(N)c1-c1ccc(F)cc1 [Example 103, 6-(4-Fluoro-phenyl)-5-methyl-3-[3-(4-pyrrolidin-1-yl-piperidin-1-yl)-phenyl]-pyrazolo[1,5-a]pyrimidin-7-ylamine] | > 10 | > 10 |
| COc1ccc(-c2cnn3c(N)c(-c4cccc(Cl)c4)c(C)nc23)cc1OC [Example 93, 6-(3-Chloro-phenyl)-3-(3,4-dimethoxy-phenyl)-5-methyl-pyrazolo[1,5-a]pyrimidin-7-ylamine] | > 10 | > 10 |
| Cc1nc2c(-c3cccc(N4CCN(C)CC4)c3)cnn2c(N)c1-c1ccc(F)c(F)c1 [Example 98, 6-(3,4-Difluoro-phenyl)-5-methyl-3-[3-(4-methyl-piperazin-1-yl)-phenyl]-pyrazolo[1,5-a]pyrimidin-7-ylamine] | > 10 | > 10 |
| Cc1nc2c(-c3cccc(N4CCN(CCO)CC4)c3)cnn2c(N)c1-c1ccc(F)c(F)c1 [Example 101, 2-(4-{3-[7-Amino-6-(3,4-difluoro-phenyl)-5-methyl-pyrazolo[1,5-a]pyrimidin-3-yl]-phenyl}-piperazin-1-yl)-ethanol] | 1 to 10 | > 10 |

Continued, values first:

| IC50 [1] [µM] | IC50 (human Flt-3) [µM] | SMILES |
| --- | --- | --- |
| < 1 | > 10 | Cc1nc2c(-c3ccc(N4CCN(C)CC4)cc3)cnn2c(N)c1-c1cccc(Cl)c1 [Example 73, 6-(3-Chloro-phenyl)-5-methyl-3-[4-(4-methyl-piperazin-1-yl)-phenyl]-pyrazolo[1,5-a]pyrimidin-7-ylamine] |
| < 1 | < 1 | CN1CCN(c2cccc(-c3cnn4c(N)c(-c5ccccc5Cl)cnc34)c2)CC1 [Example 78, 6-(2-Chloro-phenyl)-3-[3-(4-methyl-piperazin-1-yl)-phenyl]-pyrazolo[1,5-a]pyrimidin-7-ylamine] |
| < 1 | > 10 | Cc1nc2c(-c3cccc(N4CCN(C5CCN(C)CC5)CC4)c3)cnn2c(N)c1-c1cccc(Cl)c1 [Example 81, 6-(3-Chloro-phenyl)-5-methyl-3-{3-[4-(1-methyl-piperidin-4-yl)-piperazin-1-yl]-phenyl}-pyrazolo[1,5-a]pyrimidin-7-ylamine] |
| 1 to 10 | > 10 | Cc1nc2c(-c3cccc(N4CCN(C)CC4)c3)cnn2c(N)c1-c1cccc(Br)c1 [Example 84, 6-(3-Bromo-phenyl)-5-methyl-3-[3-(4-methyl-piperazin-1-yl)-phenyl]-pyrazolo[1,5-a]pyrimidin-7-ylamine] |
| < 1 | < 1 | CN1CCN(c2ccc(-c3cnn4c(N)c(-c5ccccc5Cl)cnc34)cc2)CC1 [Example 77, 6-(2-Chloro-phenyl)-3-[4-(4-methyl-piperazin-1-yl)-phenyl]-pyrazolo[1,5-a]pyrimidin-7-ylamine] |
| 1 to 10 | > 10 | CN1CCN(c2cccc(-c3cnn4c(N)c(Cc5ccccc5)cnc34)c2)CC1 [Example 91, 6-Benzyl-3-[3-(4-methyl-piperazin-1-yl)-phenyl]-pyrazolo[1,5-a]pyrimidin-7-ylamine] |
